From patent US10266496B2, “Carboxy substituted (hetero) aromatic ring derivatives and preparation method and uses thereof” (SUNSHINE LAKE PHARMA CO., LTD., priority 2015, dated 2019)
Read-outs that look alike come from different tables or passages of the source.

Columns and labels:
[1] = Pharmacokinetic evaluation in SD rats; assay type: in vivo
Protocol: SD rats were fasted for 15 h overnight and grouped randomly according to body weight. The test compound was dissolved in a solution of 5% DMSO+5% Solutol+90% Saline. For intravenous administration of the test group, the animals were administered with a dose of 1 mg/kg; for oral administration of the test group, the animals were administered with a dose of 5 mg/kg. Then venous blood (approximately 0.2 mL) was collected at the time point of 0, 0.083 (only intravenous injection group), 0.25, 0.5, 1.0, 2.0, 5.0, 7.0 and 24 h after drug administration. The venous blood was placed in EDTAK2 anticoagulant tube and centrifuged at 11000 rpm for 2 min. Plasma was collected and stored at −20° C. or at −70° C. until LC/MS/MS analysis. The drug concentration in plasma was measured at each time point, and pharmacokinetic parameters were calculated according to the curve of drug concentration-time.

[2] = target: xanthine oxidase (Homo sapiens (Human), UniProt P47989); assay: XO (Xanthine Oxidase) inhibition activity assay; assay type: biochemical; conditions: substrate xanthine, absorbance at 290 nm
Protocol: Then the diluted solution was added to a 384 well plate at 30 μL/well, and then to each well was added 30 μL of 21 mU/mL xanthine oxidase. […] After being incubated at room temperature for 5 min, absorbance at 290 nm was read by using PHERAstar FS microplate reader.

[3] = target: hURAT1 (Homo sapiens (Human), UniProt Q96S37); assay: URAT1 (urate anion transporter) inhibition activity assay: [8-14C] uric acid absorption inhibition in HEK293T cell line stably expressing hURAT1; assay type: cell-based; conditions: [8-14C] uric acid uptake, HEK293T cells stably expressing hURAT1
From the text: Inhibition ratio (%)=[1−(^14C uptaken by drug well−^14C uptaken by negative well)/(^14C uptaken by buffer well−^14C uptaken by negative well)]×100;
Wherein, the negative well was unvaccinated cell line […].

[4] = rat, plasma, SD rats, iv, 1 mg/kg
[5] = rat, plasma, SD rats, iv, 1 mg/kg, read-out: Cmax
[6] = rat, plasma, SD rats, po, 5 mg/kg

xanthine oxidase, sequence (P47989 whole entry, species assumed): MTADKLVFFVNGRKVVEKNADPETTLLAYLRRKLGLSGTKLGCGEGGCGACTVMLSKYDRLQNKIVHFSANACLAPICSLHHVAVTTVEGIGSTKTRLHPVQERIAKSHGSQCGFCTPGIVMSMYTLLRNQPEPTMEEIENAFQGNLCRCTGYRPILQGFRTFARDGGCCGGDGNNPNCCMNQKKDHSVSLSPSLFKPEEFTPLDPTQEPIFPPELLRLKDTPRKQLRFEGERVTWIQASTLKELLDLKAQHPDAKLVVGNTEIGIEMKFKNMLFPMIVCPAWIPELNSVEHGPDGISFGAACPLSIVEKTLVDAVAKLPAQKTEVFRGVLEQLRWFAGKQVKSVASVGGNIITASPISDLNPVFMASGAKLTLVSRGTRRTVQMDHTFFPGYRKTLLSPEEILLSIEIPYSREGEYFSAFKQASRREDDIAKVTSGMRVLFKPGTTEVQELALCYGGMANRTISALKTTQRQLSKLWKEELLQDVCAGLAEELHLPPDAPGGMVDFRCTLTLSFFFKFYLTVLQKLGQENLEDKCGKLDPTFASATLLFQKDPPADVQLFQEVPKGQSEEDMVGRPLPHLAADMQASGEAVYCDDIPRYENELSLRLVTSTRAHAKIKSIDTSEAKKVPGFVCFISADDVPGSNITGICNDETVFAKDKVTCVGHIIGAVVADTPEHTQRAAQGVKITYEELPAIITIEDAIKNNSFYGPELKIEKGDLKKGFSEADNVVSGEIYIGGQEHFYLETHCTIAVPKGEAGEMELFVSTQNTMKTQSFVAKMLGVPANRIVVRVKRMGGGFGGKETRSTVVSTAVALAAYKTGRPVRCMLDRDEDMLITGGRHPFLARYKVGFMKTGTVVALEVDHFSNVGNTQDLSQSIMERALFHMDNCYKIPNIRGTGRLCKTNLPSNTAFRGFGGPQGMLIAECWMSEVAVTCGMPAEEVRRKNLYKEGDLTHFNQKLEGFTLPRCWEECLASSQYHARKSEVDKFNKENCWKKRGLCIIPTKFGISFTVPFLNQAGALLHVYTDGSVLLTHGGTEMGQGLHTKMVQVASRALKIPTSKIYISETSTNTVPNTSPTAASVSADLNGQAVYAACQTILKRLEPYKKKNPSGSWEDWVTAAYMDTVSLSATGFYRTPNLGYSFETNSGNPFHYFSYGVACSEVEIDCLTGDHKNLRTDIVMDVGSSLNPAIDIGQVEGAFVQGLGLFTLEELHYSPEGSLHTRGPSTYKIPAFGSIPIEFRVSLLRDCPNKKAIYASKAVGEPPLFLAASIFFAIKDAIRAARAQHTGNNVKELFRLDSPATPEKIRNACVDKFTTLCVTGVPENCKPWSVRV
hURAT1, sequence (Q96S37 whole entry): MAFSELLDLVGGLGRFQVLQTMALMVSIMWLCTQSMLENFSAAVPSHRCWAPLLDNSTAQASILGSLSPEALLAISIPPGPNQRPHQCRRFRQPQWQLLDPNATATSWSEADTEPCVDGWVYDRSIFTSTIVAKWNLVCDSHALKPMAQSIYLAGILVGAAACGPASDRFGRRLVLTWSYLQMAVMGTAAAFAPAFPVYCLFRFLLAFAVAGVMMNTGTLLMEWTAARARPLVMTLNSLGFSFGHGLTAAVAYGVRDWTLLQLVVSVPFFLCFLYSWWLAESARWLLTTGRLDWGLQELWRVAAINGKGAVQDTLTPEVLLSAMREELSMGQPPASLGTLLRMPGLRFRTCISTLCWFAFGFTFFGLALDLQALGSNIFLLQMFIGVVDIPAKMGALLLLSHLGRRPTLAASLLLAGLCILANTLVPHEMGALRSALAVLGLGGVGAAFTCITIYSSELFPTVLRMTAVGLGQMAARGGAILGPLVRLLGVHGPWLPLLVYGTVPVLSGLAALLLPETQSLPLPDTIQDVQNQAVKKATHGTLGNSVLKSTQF

Compound | AUC(0-inf) [1, 4] | MRT inf [1, 4] | Tmax [1, 4] | half-life [1, 4] | Cmax [1, 5] | AUC(0-inf) [1, 6] | MRT inf [1, 6] | Tmax [1, 6] | IC50 [2] | F ([1]; SD, rat, in vivo) | AUClast ([1]; SD, rat, in vivo, iv, 1 mg/kg) | Vd ([1]; SD, rat, in vivo, iv, 1 mg/kg) | AUClast ([1]; SD, rat, in vivo, po, 5 mg/kg) | T1/2 ([1]; SD, rat, in vivo, po, 5 mg/kg) | IC50 [3] | further results
N#Cc1cc(-c2ccc(C(=O)O)c(O)c2)c2ccccc2c1 [Example 2, 4-(3-cyanonaphthalene-1-yl)-2-hydroxybenzoic Acid] | 2210 ng·h/mL | 1.86 h | 4.98 min | 186 min | 4380 ng/mL | 8140 ng·h/mL | 1.5 h | 25 min |  |  |  |  |  |  |  | F ([1]; SD rats, po 5 mg/kg vs iv 1 mg/kg): 74.9%; AUC(0-t) [1, 4]: 2170 ng·h/mL; clearance ([1]; rat, plasma, SD rats, iv, 1 mg/kg, read-out: Cl): 7.59 mL/min/kg; Vd ([1]; rat, plasma, SD rats, iv, 1 mg/kg, read-out: Vss): 0.828 L/kg; AUC(0-t) [1, 6]: 8130 ng·h/mL; half-life [1, 6]: 232 min; Cmax ([1]; rat, plasma, SD rats, po, 5 mg/kg, read-out: Cmax): 6290 ng/mL
N#Cc1cc(-c2ccc(C(=O)O)c(O)c2)c2oc(Cl)cc2c1 [Example 40, 4-(2-chloro-5-cyanobenzofuran-7-yl)-2-hydroxybenzoic Acid] | 6020 ng·h/mL | 2.42 h | 4.98 min | 140 min | 4090 ng/mL | 28200 ng·h/mL | 4.95 h | 30 min | 53.6 nM | 94% | 5480 ng·h/mL | 0.401 L/kg | 28100 ng·h/mL | 3.05 h | 30 nM | Cl ([1]; SD, rat, in vivo, iv, 1 mg/kg): 2.77 mL/min/kg; Cmax ([1]; SD, rat, in vivo, po, 5 mg/kg): 3700 ng/mL
N#Cc1cc(-c2ccc(C(=O)O)c(O)c2)c2occc2c1 [Example 1, 4-(5-cyanobenzofuran-7-yl)-2-hydroxybenzoic Acid] | 7000 ng·h/mL | 2.84 h | 4.98 min | 91.8 min | 6030 ng/mL | 45800 ng·h/mL | 5.98 h | 25 min | 19.6 nM | 131% | 6860 ng·h/mL | 0.399 L/kg | 44400 ng·h/mL | 3.45 h | 140 nM | clearance ([1]; SD, rat, in vivo, iv, 1 mg/kg): 2.4 mL/min/kg
N#Cc1cc2c(c(-c3ccc(C(=O)O)c(O)c3)c1)OCC2 [Example 4, 4-(5-cyano-2,3-dihydrobenzofuran-7-yl)-2-hydroxybenzoic Acid] |  |  |  |  |  |  |  |  | 60.4 nM |  |  |  |  |  | 499 nM | 
N#Cc1cc(-c2ccc(C(=O)O)c(O)c2)c2[nH]ccc2c1 [Example 7, 4-(5-cyano-1H-indol-7-yl)-2-hydroxybenzoic Acid] |  |  |  |  |  |  |  |  | 10.9 nM |  |  |  |  |  | 2880 nM | 
N#Cc1cc(-c2ccc(C(=O)O)c(O)c2)c2ccsc2c1 [Example 31, 4-(6-cyanobenzo[b]thiophen-4-yl)-2-hydroxybenzoic Acid] |  |  |  |  |  |  |  |  | 57.8 nM |  |  |  |  |  | 45 nM | 
N#Cc1cc(-c2ccc(C(=O)O)c(O)c2)c2ccoc2c1 [Example 21, 4-(6-cyanobenzofuran-4-yl)-2-hydroxybenzoic Acid] |  |  |  |  |  |  |  |  | 39.5 nM |  |  |  |  |  | 172 nM | 
N#Cc1cc(-c2ccc(C(=O)O)c(O)c2)c2oc(F)cc2c1 [Example 29, 4-(5-cyano-2-fluorobenzofuran-7-yl)-2-hydroxybenzoic Acid] | 11300 ng·h/mL | 3.49 h | 4.98 min | 166 min | 4540 ng/mL | 82100 ng·h/mL | 3.8 h | 79.8 min | 34.6 nM | 145% | 10900 ng·h/mL | 0.311 L/kg | 81700 ng·h/mL | 2.84 h | 38 nM | Cl ([1]; SD, rat, in vivo, iv, 1 mg/kg): 1.51 mL/min/kg
